Source: patent publication US20260284186A1, “[…] MODIFIERS FOR THE TREATMENT OF SUBJECTS WITH UNDER[…] SYSTEMS AND COMPOSITIONS THEREOF” (priority 2023, published 2026)

Assays:
RBD-ACE2 interaction = assay: ACE2-binding inhibitory activity of the induced antibodies; format: in vivo, Balb/c mice; conditions: sera after three administrations; FIG. 3
Source text: FIG. 3. Inhibitory activity of the antibody response induced by the groups with the strongest anti-RBD response after three administrations, following the immunization schedule described in example 1. A) G2; B) G4; C) G6; D) G11; E) G12 and F) Monoclonal antibody (McAb) CBSSRBD-S.8 used as standard curve to plot the results in the five ELISA plates.
Thus, we studied the antibody response effect on the ACE2-binding inhibitory activity.
The resulting antibody response is capable of inhibiting the binding of the antigen to their cellular receptor ACE2, a process that resembles the interaction of the virus to their cellular receptor. This inhibitory effect is essential to ensure the strong antiviral effect of the immune response against an infectious agent/virus through the specific neutralizing activity. […] This functional aspect of the antibody response is linked to the increased quality of the same response in terms of avidity. […] The quality of the experiment was ensured with the use of a McAb in the standard curve of the five plates used in the study and the reproducibility of the inhibitory effect (FIG. 3F) as well as with the assessment of the ACE2 inhibitory binding in a group that received the placebo of CDA but no antigen ([…]).

SARS-COV-2 RBD = assay: Anti-RBD IgG response, CDA dose escalation, Example 13; format: in vivo, Balb/c mice
SARS and IAV = format: in vivo; conditions: BRM without antigen
multiple viruses = assay: In vitro stimulation of cells with CDA or CDA/HBcAg, IFN induction and virus elimination, Example 14; format: cell-based

Nc1ncnc2c1ncn2[C@@H]1O[C@@H]2COP(=O)(O)O[C@H]3[C@@H](O)[C@H](n4cnc5c(N)ncnc54)O[C@@H]3COP(=O)(O)O[C@H]2[C@H]1O [CDA, cyclic bis(3′-5′) diadenylic acid]
Inhibitory effect on RBD-ACE2 binding (RBD-ACE2 interaction): strong inhibitory effect
Dose of CDA inducing the strongest immune response (SARS-COV-2 RBD; RBD at 50 μg dose (1 mg/mL)): 5 µg
Optimal dose of CDA per mice (SARS-COV-2 RBD; with 12.5 μg of RBD): 10 µg
Antibody response against the viral antigens after in vivo treatment (SARS and IAV): high avidity antibody response
Viral titers of SARS and IAV (SARS and IAV; acutely infected subjects and in vitro infected & treated cells, before or after infection): quantitative reduction of the viral titers
Stimulatory effects and type I / type 2 IFN induction (multiple viruses; in vitro stimulation of cells, synergy in vivo): enhancement of different channels of stimulatory effects
Elimination of viruses in vitro (multiple viruses; multiple viruses): in vitro elimination of multiple viruses
